Laboratory results as given in patent publication US8653004B2, “Actives-comprising polymer networks, processes for producing them, and their use” (priority 2007, dated 2014).
Values after ≈ are worked out from the molar mass of the structure shown.

Assay: physchem
Format: physicochemical
Conditions: water

## CCNc1nc(NC(C)(C)C)nc(SC)n1 [terbutryn, N2-tert-butyl-N4-ethyl-6-methylthio-1,3,5-triazine-2,4-diamine]
  solubility: ~20 µg/mL (≈ 82.9 µM)
